Results: PubChem BioAssay (NCI)
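Interpolation was linear, between the two tested concentrations surrounding the appropriate level; five concentrations were tested over 48 hours in 96-well plates. Abbreviation: GI50, concentration required for 50% inhibition of growth. TGI: concentration producing complete growth inhibition.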

Key:
Assay in all cases: NCI tumour cell line growth inhibition, 48 h
MALME-3M melanoma = system: MALME-3M melanoma
HT29 colon = system: HT29 colon
HOP-62 NSCLC = system: HOP-62 NSCLC
UACC-62 melanoma = system: UACC-62 melanoma
SK-MEL-5 melanoma = system: SK-MEL-5 melanoma
OVCAR-4 ovarian = system: OVCAR-4 ovarian
OVCAR-3 ovarian = system: OVCAR-3 ovarian
SNB-75 CNS = system: SNB-75 CNS
SK-MEL-28 melanoma = system: SK-MEL-28 melanoma
SN12C renal = system: SN12C renal
DLD-1 colon = system: DLD-1 colon
TK-10 renal = system: TK-10 renal
NCI-H23 lung = system: NCI-H23 lung
LOX IMVI melanoma = system: LOX IMVI melanoma
RXF-631 renal = system: RXF-631 renal
K-562 leukemia = system: K-562 leukemia
COLO 205 colon = system: COLO 205 colon
KM20L2 colon = system: KM20L2 colon
HCT-15 colon = system: HCT-15 colon
XF 498 CNS = system: XF 498 CNS
RPMI-8226 leukemia = system: RPMI-8226 leukemia
SF-539 CNS = system: SF-539 CNS
RXF 393 renal = system: RXF 393 renal
SF-268 CNS = system: SF-268 CNS
SK-OV-3 ovarian = system: SK-OV-3 ovarian
HCC-2998 colon = system: HCC-2998 colon
CAKI-1 renal = system: CAKI-1 renal
M14 melanoma = system: M14 melanoma
CCRF-CEM leukemia = system: CCRF-CEM leukemia
M19-MEL melanoma = system: M19-MEL melanoma
SF-295 CNS = system: SF-295 CNS
NCI-H460 lung = system: NCI-H460 lung
SK-MEL-2 melanoma = system: SK-MEL-2 melanoma
LXFL 529 NSCLC = system: LXFL 529 NSCLC
NCI-H522 lung = system: NCI-H522 lung
A549 NSCLC = system: A549 NSCLC
UACC-257 melanoma = system: UACC-257 melanoma
IGROV1 ovarian = system: IGROV1 ovarian
MOLT-4 leukemia = system: MOLT-4 leukemia
KM12 colon = system: KM12 colon
HCT-116 colon = system: HCT-116 colon
OVCAR-8 ovarian = system: OVCAR-8 ovarian
EKVX NSCLC = system: EKVX NSCLC
786-0 renal = system: 786-0 renal
SW-620 colon = system: SW-620 colon
ACHN renal = system: ACHN renal

SMILES: C/C=C/C=C/CCCCCCCCCCCCC[C@]1(OC)C=CC(CC(=O)OC)OO1 (stereo not given in full)
- TGI (MALME-3M melanoma): 77.5 µM
- GI50 (HT29 colon): 21.9 µM
- TGI (HT29 colon): 48.1 µM
- GI50 (HOP-62 NSCLC): 43.9 µM
- TGI (HOP-62 NSCLC): > 100 µM
- TGI (UACC-62 melanoma): 29.8 µM
- TGI (SK-MEL-5 melanoma): 31.1 µM
- GI50 (OVCAR-4 ovarian): 12.5 µM
- TGI (OVCAR-4 ovarian): 25.9 µM
- GI50 (OVCAR-3 ovarian): 22.1 µM
- TGI (OVCAR-3 ovarian): 42.2 µM
- TGI (SNB-75 CNS): 31.2 µM
- TGI (SK-MEL-28 melanoma): 36.1 µM
- TGI (SN12C renal): 48 µM
- GI50 (DLD-1 colon): 20.2 µM
- TGI (DLD-1 colon): 41.9 µM
- GI50 (TK-10 renal): 17.6 µM
- TGI (TK-10 renal): 31.7 µM
- GI50 (NCI-H23 lung): 19.1 µM
- TGI (NCI-H23 lung): 36.8 µM
- GI50 (LOX IMVI melanoma): 19.3 µM
- TGI (LOX IMVI melanoma): 37.1 µM
- GI50 (RXF-631 renal): 24 µM
- TGI (RXF-631 renal): 56 µM
- TGI (K-562 leukemia): 52.1 µM
- GI50 (COLO 205 colon): 18.9 µM
- TGI (COLO 205 colon): 36.1 µM
- GI50 (KM20L2 colon): 23.9 µM
- TGI (KM20L2 colon): 51.1 µM
- GI50 (HCT-15 colon): 16 µM
- TGI (HCT-15 colon): 29.5 µM
- GI50 (XF 498 CNS): 24.2 µM
- TGI (XF 498 CNS): 44.6 µM
- TGI (RPMI-8226 leukemia): 49.2 µM
- TGI (SF-539 CNS): 35.3 µM
- GI50 (RXF 393 renal): 16.5 µM
- TGI (RXF 393 renal): 31 µM
- TGI (SF-268 CNS): 46.4 µM
- TGI (SK-OV-3 ovarian): 81 µM
- GI50 (HCC-2998 colon): 24.3 µM
- TGI (HCC-2998 colon): 47.9 µM
- GI50 (CAKI-1 renal): 17.1 µM
- TGI (CAKI-1 renal): 31.1 µM
- TGI (M14 melanoma): 31.9 µM
- GI50 (CCRF-CEM leukemia): 6.9 µM
- TGI (CCRF-CEM leukemia): 28.7 µM
- TGI (M19-MEL melanoma): 33 µM
- GI50 (SF-295 CNS): 18.5 µM
- TGI (SF-295 CNS): 34.3 µM
- TGI (NCI-H460 lung): 46.8 µM
- TGI (SK-MEL-2 melanoma): 69.5 µM
- GI50 (LXFL 529 NSCLC): 14.7 µM
- TGI (LXFL 529 NSCLC): 28.2 µM
- GI50 (NCI-H522 lung): 3.8 µM
- TGI (NCI-H522 lung): 16.6 µM
- GI50 (A549 NSCLC): 35 µM
- TGI (A549 NSCLC): > 100 µM
- TGI (UACC-257 melanoma): 45.6 µM
- GI50 (IGROV1 ovarian): 5.61 µM
- TGI (IGROV1 ovarian): 20 µM
- GI50 (MOLT-4 leukemia): 19.9 µM
- TGI (MOLT-4 leukemia): 48.7 µM
- GI50 (KM12 colon): 17.9 µM
- TGI (KM12 colon): 36.3 µM
- TGI (HCT-116 colon): 29.6 µM
- GI50 (OVCAR-8 ovarian): 17.6 µM
- TGI (OVCAR-8 ovarian): 37.7 µM
- GI50 (EKVX NSCLC): 26.3 µM
- TGI (EKVX NSCLC): 57.6 µM
- GI50 (786-0 renal): 17.1 µM
- TGI (786-0 renal): 33.4 µM
- GI50 (SW-620 colon): 16.7 µM
- TGI (SW-620 colon): 33 µM
- GI50 (ACHN renal): 16.6 µM
- TGI (ACHN renal): 31.4 µM
